From PMC4437783, “An Improved Method for P2X7R Antagonist Screening” (PLoS ONE, 2015)
Each block holds one molecule with its values, some of them ahead of it.

Experiments:
Type in all cases: cell-based
P2X7 receptor (mP2X7R) [1] = target: T1, P2X7 receptor (mP2X7R) (Mus musculus, UniProt Q9Z1M0); test: inhibition of ATP-induced PI dye uptake in J774.G8 cells, plate reader
T1 construct: gene P2rx7; natively expressed in J774.G8 macrophages
T1 sequence (Q9Z1M0 1-595): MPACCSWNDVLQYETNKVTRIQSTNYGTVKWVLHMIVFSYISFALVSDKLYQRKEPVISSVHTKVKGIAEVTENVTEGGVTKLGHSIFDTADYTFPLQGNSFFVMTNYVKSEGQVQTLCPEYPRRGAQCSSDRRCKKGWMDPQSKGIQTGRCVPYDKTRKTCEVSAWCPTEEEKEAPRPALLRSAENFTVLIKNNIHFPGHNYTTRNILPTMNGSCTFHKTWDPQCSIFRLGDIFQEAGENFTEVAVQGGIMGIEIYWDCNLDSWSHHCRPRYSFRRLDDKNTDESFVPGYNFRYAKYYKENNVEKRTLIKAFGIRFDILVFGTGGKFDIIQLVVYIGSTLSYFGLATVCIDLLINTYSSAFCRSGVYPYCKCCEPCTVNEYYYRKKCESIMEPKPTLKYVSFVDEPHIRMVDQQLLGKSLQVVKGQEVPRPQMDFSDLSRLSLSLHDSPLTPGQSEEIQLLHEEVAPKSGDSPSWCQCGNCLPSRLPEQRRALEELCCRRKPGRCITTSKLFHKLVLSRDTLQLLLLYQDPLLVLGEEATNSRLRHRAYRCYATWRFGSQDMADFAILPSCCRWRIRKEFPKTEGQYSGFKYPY

P2X7 receptor (mP2X7R) [2] = target: T1, P2X7 receptor (mP2X7R); test: inhibition of ATP-induced dye uptake in J774.G8 cells, plate reader
P2X7 receptor (P2X7R) = target: T2, P2X7 receptor (P2X7R) (Homo sapiens, UniProt Q99572); test: block of ATP-induced PI dye uptake in U937 cells at a single concentration ([…])
T2 construct: gene P2RX7; native in U937 human monocyte cells
T2 sequence (Q99572 1-595): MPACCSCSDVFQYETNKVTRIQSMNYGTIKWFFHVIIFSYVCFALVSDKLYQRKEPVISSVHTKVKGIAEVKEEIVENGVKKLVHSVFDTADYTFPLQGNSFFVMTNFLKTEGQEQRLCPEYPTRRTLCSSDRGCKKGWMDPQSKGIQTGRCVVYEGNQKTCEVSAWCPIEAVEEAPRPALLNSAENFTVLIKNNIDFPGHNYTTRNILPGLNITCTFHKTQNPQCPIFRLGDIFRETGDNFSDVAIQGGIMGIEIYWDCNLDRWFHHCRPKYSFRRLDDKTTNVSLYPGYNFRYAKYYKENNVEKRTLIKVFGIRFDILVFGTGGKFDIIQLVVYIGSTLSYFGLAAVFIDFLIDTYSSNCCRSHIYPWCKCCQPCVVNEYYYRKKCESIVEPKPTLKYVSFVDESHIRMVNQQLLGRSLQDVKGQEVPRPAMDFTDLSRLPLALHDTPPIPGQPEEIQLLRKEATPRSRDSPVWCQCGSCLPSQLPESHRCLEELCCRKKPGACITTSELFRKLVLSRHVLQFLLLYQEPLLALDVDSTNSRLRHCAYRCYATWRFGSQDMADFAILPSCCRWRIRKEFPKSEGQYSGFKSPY

P2X7 receptor (mP2X7R) [3] = target: T1, P2X7 receptor (mP2X7R); test: block of ATP-induced PI dye uptake in J774.G8 cells at a single concentration ([…])
P2X7 receptor (mP2X7R) [4] = target: T1, P2X7 receptor (mP2X7R); test: agonist dose-response, PI dye uptake in J774.G8 cells, plate reader

IC50 (P2X7 receptor (mP2X7R) [1]): 1.3 to 2.6 µM
SMILES: CCOc1ccc(Nc2ccc(/C(=C3C=C/C(=[N+](/CC)Cc4cccc(S(=O)(=O)[O-])c4)C=C/3C)c3ccc(N(CC)Cc4cccc(S(=O)(=O)O)c4)cc3C)cc2)cc1 [BBG, Brilliant Blue G]

IC50 (P2X7 receptor (mP2X7R) [2]): 173 to 285 µM
SMILES: Nc1ncnc2c1ncn2[C@@H](C=O)O[C@@H](C=O)COP(=O)(O)OP(=O)(O)OP(=O)(O)O [OATP, oxidized ATP]

SMILES: O=C1CSC(=O)N1C(CCc1ccncc1)COc1ccc(-c2cccc([N+](=O)[O-])c2)cc1 (centres unmarked) [AZ, AZ11645373]
block of ATP-induced PI dye uptake in U937 cells at a single concentration (10 μ) (P2X7 receptor (P2X7R)): the treatment with the selective P2X7R antagonist AZ11645373 blocked the dye uptake
block of ATP-induced PI dye uptake in J774.G8 cells at a single concentration (1) (P2X7 receptor (mP2X7R) [3]): the treatment with the selective P2X7R antagonist AZ11645373 blocked the dye uptake

SMILES: Nc1ncnc2c1ncn2[C@@H]1O[C@H](COP(=O)(O)OP(=O)(O)OP(=O)(O)O)[C@@H](O)[C@H]1O [ATP]
EC50 (P2X7 receptor (mP2X7R) [4]): 700 ± 70 µM
